Like-named read-outs stand apart in the source and are kept apart here.
Assays:
FLT-3 = biological target: T1, FLT-3 (Homo sapiens, UniProt P36888); test: FLT-3 inhibition assay, radiometric filter-binding; type: biochemical
T1 sequence (P36888 27-993): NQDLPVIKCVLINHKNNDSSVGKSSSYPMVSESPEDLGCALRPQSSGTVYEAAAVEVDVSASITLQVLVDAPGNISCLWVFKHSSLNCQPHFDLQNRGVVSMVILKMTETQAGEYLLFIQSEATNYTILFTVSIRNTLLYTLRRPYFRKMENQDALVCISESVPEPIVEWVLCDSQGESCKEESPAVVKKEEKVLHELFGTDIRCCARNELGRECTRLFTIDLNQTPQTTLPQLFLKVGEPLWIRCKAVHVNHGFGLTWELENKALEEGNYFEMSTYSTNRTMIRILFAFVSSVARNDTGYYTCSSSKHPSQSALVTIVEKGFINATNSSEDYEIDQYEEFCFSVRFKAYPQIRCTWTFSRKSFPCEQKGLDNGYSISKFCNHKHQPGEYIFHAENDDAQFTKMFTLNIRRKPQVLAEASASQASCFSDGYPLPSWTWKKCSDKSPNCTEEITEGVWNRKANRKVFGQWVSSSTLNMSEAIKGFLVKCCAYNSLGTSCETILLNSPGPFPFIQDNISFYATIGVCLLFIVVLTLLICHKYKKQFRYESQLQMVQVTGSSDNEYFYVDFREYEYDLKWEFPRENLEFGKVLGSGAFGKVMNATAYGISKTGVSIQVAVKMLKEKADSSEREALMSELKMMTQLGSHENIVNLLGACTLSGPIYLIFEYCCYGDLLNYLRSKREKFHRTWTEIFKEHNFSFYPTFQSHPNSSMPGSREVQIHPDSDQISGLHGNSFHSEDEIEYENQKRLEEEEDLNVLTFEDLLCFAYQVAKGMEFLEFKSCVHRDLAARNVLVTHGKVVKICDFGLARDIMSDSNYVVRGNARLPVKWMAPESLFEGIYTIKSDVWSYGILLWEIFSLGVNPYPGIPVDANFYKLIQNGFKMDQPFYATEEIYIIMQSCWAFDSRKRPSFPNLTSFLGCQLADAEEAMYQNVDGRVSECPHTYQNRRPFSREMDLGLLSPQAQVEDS
Procedure: This assay monitors the 33P incorporation into a substrate poly(Glu, Tyr) 4:1 (pE4Y). […] Final substrate concentrations in the assay were 90 μM ATP and 0.5 mg/ml pE4Y (both from Sigma Chemicals, St Louis, Mo.). […] Reactions were carried out at room temperature.
Two assay solutions were prepared. Solution 1 contains 100 mM HEPES (pH 7.5), 10 mM MgCl2, 25 mM NaCl, 1 mg/ml pE4Y and […] (containing 0.3 mCi of [γ-33^P]ATP for each reaction). Solution 2 contains 100 mM HEPES (pH 7.5), 10 mM MgCl2, 25 mM NaCl, 2 mM DTT, 0.02% BSA and 3 nM FLT-3. The assay was run on a 96 well plate by mixing 50 μl each of Solution 1 and […] of the compounds of the present invention. The reaction was initiated with Solution 2. […] All of the reaction volume was then transferred to a filter plate and washed with 5% TCA by a Harvester 9600 from TOMTEC (Hamden, Conn.). The amount of ^33P incorporation into pE4y was analyzed by a Packard Top Count Microplate Scintillation Counter (Meriden, Conn.). The data was fitted using Prism software to get an IC50 or Ki.

Aurora-2 (Aurora A) = biological target: T2, Aurora-2 (Aurora A) (Homo sapiens, UniProt O14965); test: Aurora-2 (Aurora A) inhibition assay, coupled enzyme; type: biochemical
T2 sequence (O14965 1-403): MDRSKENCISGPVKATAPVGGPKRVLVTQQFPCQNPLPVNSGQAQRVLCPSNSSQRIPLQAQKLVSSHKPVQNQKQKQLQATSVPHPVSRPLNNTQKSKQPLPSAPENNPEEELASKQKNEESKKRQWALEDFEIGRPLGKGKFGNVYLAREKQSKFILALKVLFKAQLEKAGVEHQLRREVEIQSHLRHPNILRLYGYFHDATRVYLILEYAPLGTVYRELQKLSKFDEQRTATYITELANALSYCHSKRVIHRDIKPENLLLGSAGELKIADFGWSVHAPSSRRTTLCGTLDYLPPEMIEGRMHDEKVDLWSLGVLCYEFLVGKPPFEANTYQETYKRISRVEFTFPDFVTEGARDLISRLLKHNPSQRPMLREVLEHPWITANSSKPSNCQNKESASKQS
Procedure: Assays were carried out in a mixture of 100 mM Hepes (pH7.5), 10 mM MgCl2, 1 mM DTT, 25 mM NaCl, 2.5 mM phosphoenolpyruvate, 300 μM NADH, 30 μg/ml pyruvate kinase and 10 μg/ml lactate dehydrogenase. […] Assays were carried out at 30° C. and in the presence of 40 nM Aurora-2.
An assay stock buffer solution was prepared containing all of the reagents listed above, with the exception of Aurora-2 and the test compound of interest. […] The plate was preincubated for 10 minutes at 30° C. and the reaction initiated by addition of 10 μl of Aurora-2. Initial reaction rates were determined with a Molecular Devices SpectraMax Plus plate reader over a 10 minute time course. IC50 and Ki data were calculated from non-linear regression analysis using the Prism software package (GraphPad Prism version 3.0cx for Macintosh, GraphPad Software, San Diego Calif., USA).

[1] = 90 μM ATP, 0.5 mg/ml pE4Y, room temperature, read-out: FLT-3 Ki
[2] = 400 μM ATP, 570 μM Kemptide, 30° C., 40 nM Aurora-2, read-out: Aurora A Ki

Row | Compound | Ki (FLT-3) [nM] | Ki (Aurora-2 (Aurora A)) [nM] | Ki (FLT-3; [1]) [nM] | Ki (Aurora-2 (Aurora A); [2]) [nM]
1 | Cc1cc(Nc2cc(N3CCC3)nc(Sc3ccc(NC(=O)c4ccccc4C(F)(F)F)cc3)n2)[nH]n1 [Compound I-14] |  |  | 170 | 0.38
2 | Cc1cc(Nc2cc(N3CCC3)nc(Sc3ccc(NC(=O)c4ccccc4C)cc3)n2)[nH]n1 [Compound I-5] |  |  | 70 | 0.87
3 | Cc1cc(Nc2cc(N3CCC3)nc(Sc3ccc(NC(=O)c4ccccc4C(F)F)cc3)n2)[nH]n1 [Compound I-19] |  |  | 160 | 1.2
4 | Cc1cc(Nc2cc(N3CCC3)nc(Sc3ccc(NC(=O)c4ccccc4F)cc3)n2)[nH]n1 [Compound I-3] |  |  | 220 | 2.2
5 | O=C(Nc1ccc(Sc2nc(Nc3cc(C4CC4)[nH]n3)cc(N3CCC3)n2)cc1)c1ccccc1Cl [Compound I-17] | 100 |  |  | 0.65
6 | Cc1cc(Nc2cc(N3CCC3)nc(Sc3ccc(NC(=O)c4ccccc4Cl)cc3)n2)[nH]n1 [Compound I-1, N-{4-[4-Azetidin-1-yl-6-(5-methyl-2H-pyrazol-3-ylamino)-pyrimidin-2-ylsulfanyl]-phenyl}-2-chloro-benzamide] |  |  | 100 | 1
7 | Cc1cc(Nc2cc(N3CCC3)nc(Sc3ccc(NC(=O)c4c(F)cccc4F)cc3)n2)[nH]n1 [Compound I-2, N-{4-[4-Azetidin-1-yl-6-(5-methyl-2H-pyrazol-3-ylamino)-pyrimidin-2-ylsulfanyl]-phenyl}-2,6-Difluoro-benzamide] |  |  | 180 | 1.9
8 | Cc1cc(Nc2cc(N3CCC3)nc(Sc3ccc(NC(=O)c4ccccc4OC(F)(F)F)cc3)n2)[nH]n1 [Compound I-8] | 170 | 0.67 |  | 
9 | Cc1cc(Nc2cc(N3CCC3)nc(Sc3ccc(NC(=O)c4cccc(C(F)(F)F)c4F)cc3)n2)n[nH]1 [Compound I-13] | 350 | 0.35 |  | 

Results, then the compound that gave them:

Row | Ki (FLT-3) [nM] | Ki (Aurora-2 (Aurora A)) [nM] | Ki (FLT-3; [1]) [nM] | Ki (Aurora-2 (Aurora A); [2]) [nM] | Compound
10 | 540 | 1.4 |  |  | Cc1cc(Nc2cc(N3CCC3)nc(Sc3ccc(NC(=O)c4cccc(Cl)c4)cc3)n2)n[nH]1 [Compound I-12]
11 | 190 | < 0.35 |  |  | CCc1cccc(C(=O)Nc2ccc(Sc3nc(Nc4cc(C)[nH]n4)cc(N4CCC4)n3)cc2)c1Cl [Compound I-22]
12 | 120 | 3 |  |  | COc1ccccc1C(=O)Nc1ccc(Sc2nc(Nc3cc(C)[nH]n3)cc(N3CCC3)n2)cc1 [Compound I-6]
13 | 240 | 0.77 |  |  | Cc1cc(Nc2cc(N3CCC3)nc(Sc3ccc(NC(=O)c4cccc(C)c4Cl)cc3)n2)n[nH]1 [Compound I-20]
14 | 160 | 0.76 |  |  | Cc1cc(Nc2cc(N3CCC3)nc(Sc3ccc(NC(=O)c4cccc(Cl)c4F)cc3)n2)n[nH]1 [Compound I-15]
15 | 550 |  |  | 0.78 | Cc1cc(Nc2cc(N3CCC3)nc(Sc3ccc(NC(=O)c4cc(Cl)ccc4Cl)cc3)n2)n[nH]1 [Compound I-21]
16 | 330 | 2.5 |  |  | Cc1cccc(C(=O)Nc2ccc(Sc3nc(Nc4cc(C)[nH]n4)cc(N4CCC4)n3)cc2)c1 [Compound I-4]
17 | 110 | 0.71 |  |  | Cc1cc(Nc2cc(N3CCC3)nc(Sc3ccc(NC(=O)c4c(Cl)cccc4Cl)cc3)n2)n[nH]1 [Compound I-11]

Source: US8557833B2, “Aminopyrimidines useful as kinase inhibitors” (priority 2005, dated 2013)
